Measured values as given in patent US7176008B2, “Process for producing activated thrombin-activatable fibrinolysis inhibitor” (Merck & Co., Inc., priority 2002, dated 2007).
Values belong to the compound of their own block, whether it stands above or below them. Residues, ends and D or L forms follow the SMILES beside them. *: point of attachment. Biotin = O=C1N[C@H]2[C@H](CS[C@H]2CCCCC(=O)*)N1; Ahx = NCCCCCC(=O)O

Experiments:
[1] = test system: CPE
Method: (§1) Inhibition studies of CPE were performed in an acetate buffer containing 125 mM sodium acetate, pH 5.5, 1.25 mM CoCl2 at 37° C. […] CPE (final concentration 0.15 nM) was pre-incubated with inhibitors for 30 min at room temperature. The electrochemiluminescence substrate (final concentration 50 nM) was added and incubated for 6 hr at 37° C., then quenched with one-third volume of 1 M Tris, pH 8.0.
(§2) All measurements were performed in at least duplicates and the inhibition constants (Ki) were determined by the equation below wherein Vo and Vi are activity in the absence and presence of inhibitors, respectively. Vo/Vi=1+[I]/K1

[2] = biological target: CPE (Homo sapiens, UniProt P16870); test: biochemical
Sequence of CPE (Homo sapiens, UniProt P16870) (P16870 43-450 limits assumed): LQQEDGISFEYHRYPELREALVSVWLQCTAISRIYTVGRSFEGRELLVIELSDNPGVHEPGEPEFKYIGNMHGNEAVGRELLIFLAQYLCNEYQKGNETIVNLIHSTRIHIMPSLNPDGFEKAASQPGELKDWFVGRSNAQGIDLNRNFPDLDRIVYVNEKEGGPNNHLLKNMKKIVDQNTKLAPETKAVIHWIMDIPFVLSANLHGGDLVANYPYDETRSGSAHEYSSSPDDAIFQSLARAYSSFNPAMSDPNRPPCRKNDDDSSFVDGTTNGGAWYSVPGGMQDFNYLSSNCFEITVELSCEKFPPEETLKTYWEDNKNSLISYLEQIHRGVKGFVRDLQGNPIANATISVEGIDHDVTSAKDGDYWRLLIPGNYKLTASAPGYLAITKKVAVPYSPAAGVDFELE
Method: as §1, §2

[3] = biological target: most carboxypeptidases; conditions: read-out: Ki for most carboxypeptidases; all except CPE
Method: (§3) A typical assay (75 μL) contained each studied carboxypeptidase and selected inhibitors (in 5 μL DMSO) in HBSP buffer in 96-well round bottom microtiter plates (Costar 3365 plates). Enzyme and compound were preincubated for 15–30 minutes at room temperature. […] The final substrate concentration was 15 to 50 nM. The amount of carboxypeptidase activity was titrated to result in 40,000–50,000 electrochemiluminescence counts (typically 0.02–0.1 nM, 0.01 nM, 5 nM, and 0.15–0.65 nM. for TAFIa, CPB, CPN and CPM, respectively). […] Ruthenium-labeled G2-10 (25 μL of 0.063 μg/mL) and streptavidin magnetic beads (25 μL of 0.2 mg/mL, Dynabeads M-280) were added to the quenched solution and shaken at 300 rpm for >1 hr. G2-10 antibody and beads were prepared in a BSA diluent containing 150 mM phosphate, pH 7.8, 150 mM NaCl, 3% (w/v) BSA (protease free fraction V) and 0.05% NaN3. The volume was brought to 250 μL with HBSP and read on an Igen 96-well electrochemiluminescence plate reader (M8 Analyzer) at 620 nm. […]
(§4) All measurements were performed in at least duplicates and the inhibition constants (Ki) were determined by the equation below wherein Vo and Vi are activity in the absence and presence of inhibitors, respectively. […]
(§5) Hydrolysis of substrate was measured in HBSP (pH 7.4) for TAFIa, CPB, CPM, and CPM. […]

[4] = biological target: T1, CPN (Homo sapiens, UniProt P15169)
T1 sequence (P15169 21-458): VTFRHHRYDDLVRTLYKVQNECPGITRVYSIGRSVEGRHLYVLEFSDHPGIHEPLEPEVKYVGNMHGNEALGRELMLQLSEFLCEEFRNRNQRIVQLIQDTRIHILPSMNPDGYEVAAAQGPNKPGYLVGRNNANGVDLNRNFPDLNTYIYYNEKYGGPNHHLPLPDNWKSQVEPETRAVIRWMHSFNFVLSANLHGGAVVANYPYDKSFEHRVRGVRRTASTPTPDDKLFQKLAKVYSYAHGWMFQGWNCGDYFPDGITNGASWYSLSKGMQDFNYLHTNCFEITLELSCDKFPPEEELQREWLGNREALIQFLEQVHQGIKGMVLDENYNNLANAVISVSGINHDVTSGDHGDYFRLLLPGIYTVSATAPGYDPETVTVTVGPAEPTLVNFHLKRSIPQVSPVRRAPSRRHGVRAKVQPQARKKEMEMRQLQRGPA
T1 sequence (P22792 22-545 partner): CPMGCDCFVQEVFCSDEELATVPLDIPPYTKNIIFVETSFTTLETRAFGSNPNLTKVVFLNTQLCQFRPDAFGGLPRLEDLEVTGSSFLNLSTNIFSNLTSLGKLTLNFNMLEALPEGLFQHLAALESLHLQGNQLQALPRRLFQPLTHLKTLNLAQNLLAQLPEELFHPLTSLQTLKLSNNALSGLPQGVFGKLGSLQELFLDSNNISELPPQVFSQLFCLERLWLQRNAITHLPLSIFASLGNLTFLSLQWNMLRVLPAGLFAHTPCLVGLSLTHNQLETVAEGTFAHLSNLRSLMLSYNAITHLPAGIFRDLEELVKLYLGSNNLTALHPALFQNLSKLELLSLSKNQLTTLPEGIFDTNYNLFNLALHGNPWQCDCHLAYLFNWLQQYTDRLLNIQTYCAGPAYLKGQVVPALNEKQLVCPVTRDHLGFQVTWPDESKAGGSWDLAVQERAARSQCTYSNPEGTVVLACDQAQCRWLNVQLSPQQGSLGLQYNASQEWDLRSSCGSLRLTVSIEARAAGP
Method: as §3, §4, §5

[5] = biological target: T2, CPB (Homo sapiens, UniProt P15086); conditions: CPB versus TAFIa
T2 sequence (P15086 111-417): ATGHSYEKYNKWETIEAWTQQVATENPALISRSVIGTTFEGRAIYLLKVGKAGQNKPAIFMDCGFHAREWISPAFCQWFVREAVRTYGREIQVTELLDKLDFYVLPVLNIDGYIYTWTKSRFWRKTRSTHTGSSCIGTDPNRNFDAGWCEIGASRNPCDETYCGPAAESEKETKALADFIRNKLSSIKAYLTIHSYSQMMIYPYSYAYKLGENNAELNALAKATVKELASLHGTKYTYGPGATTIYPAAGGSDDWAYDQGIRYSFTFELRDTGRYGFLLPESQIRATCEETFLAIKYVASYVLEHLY
Method: (§6) A typical assay (75 μL) contained each studied carboxypeptidase and selected inhibitors (in 5 μL DMSO) in HBSP buffer in 96-well round bottom microtiter plates (Costar 3365 plates). Enzyme and compound were preincubated for 15–30 minutes at room temperature. […] The final substrate concentration was 15 to 50 nM. The amount of carboxypeptidase activity was titrated to result in 40,000–50,000 electrochemiluminescence counts (typically 0.02–0.1 nM, 0.01 nM, 5 nM, and 0.15–0.65 nM. for TAFIa, CPB, CPN and CPM, respectively). […] Ruthenium-labeled G2-10 (25 μL of 0.063 μg/mL) and streptavidin magnetic beads (25 μL of 0.2 mg/mL, Dynabeads M-280) were added to the quenched solution and shaken at 300 rpm for >1 hr. G2-10 antibody and beads were prepared in a BSA diluent containing 150 mM phosphate, pH 7.8, 150 mM NaCl, 3% (w/v) BSA (protease free fraction V) and 0.05% NaN3. The volume was brought to 250 μL with HBSP and read on an Igen 96-well electrochemiluminescence plate reader (M8 Analyzer) at 620 nm. Subtraction of background activity in solutions containing only substrate was performed to determine the final activity. […] One unit was defined as one nM product generated per min.
as §2
(§7) Several commercial inhibitors were tested with the electrochemiluminescence assay.
(§8) Hydrolysis of substrate was measured in HBSP (pH 7.4) for TAFIa, CPB, CPM, and CPM. Activities of CPE and CPZ were measures in acetate buffer (pH 5.5) and Tris buffer (pH 7.4), respectively.

[6] = biological target: T3, CPZ (Homo sapiens, UniProt Q66K79)
T3 sequence (Q66K79 19-652): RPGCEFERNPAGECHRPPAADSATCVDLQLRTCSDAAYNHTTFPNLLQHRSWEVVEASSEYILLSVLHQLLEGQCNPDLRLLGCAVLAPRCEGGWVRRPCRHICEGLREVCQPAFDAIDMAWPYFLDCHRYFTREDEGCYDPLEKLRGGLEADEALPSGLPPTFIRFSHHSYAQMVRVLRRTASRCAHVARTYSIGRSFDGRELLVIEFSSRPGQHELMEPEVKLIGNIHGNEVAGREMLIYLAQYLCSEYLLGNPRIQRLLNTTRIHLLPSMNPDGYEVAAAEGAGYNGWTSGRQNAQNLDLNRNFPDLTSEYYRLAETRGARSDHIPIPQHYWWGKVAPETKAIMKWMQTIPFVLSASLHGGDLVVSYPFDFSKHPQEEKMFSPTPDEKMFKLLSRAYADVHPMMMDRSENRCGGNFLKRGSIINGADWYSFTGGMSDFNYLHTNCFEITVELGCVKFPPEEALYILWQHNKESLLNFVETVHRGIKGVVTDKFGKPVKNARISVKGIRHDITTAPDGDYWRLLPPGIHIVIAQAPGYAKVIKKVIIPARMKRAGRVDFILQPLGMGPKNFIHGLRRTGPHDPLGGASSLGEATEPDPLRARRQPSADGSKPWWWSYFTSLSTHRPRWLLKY
Method: Inhibition studies of CPE were performed in an acetate buffer containing 125 mM sodium acetate, pH 5.5, 1.25 mM CoCl2 at 37° C. […] CPE (final concentration 0.15 nM) was pre-incubated with inhibitors for 30 min at room temperature. The electrochemiluminescence substrate (final concentration 50 nM) was added and incubated for 6 hr at 37° C., then quenched with one-third volume of 1 M Tris, pH 8.0. The activity of CPZ was determined in 100 mM Tris, pH 7.4 at 37° C.
CPZ (final concentration 2 nM) was pre-incubated with inhibitors for 30 min at room temperature before substrate was added (final concentration 50 nM). […] The concentration of product was determined as described above.
as §2
Activities of CPE and CPZ were measures in acetate buffer (pH 5.5) and Tris buffer (pH 7.4), respectively.

[7] = biological target: T4, CPM (Homo sapiens, UniProt P14384)
T4 sequence (P14384 18-423 limits assumed): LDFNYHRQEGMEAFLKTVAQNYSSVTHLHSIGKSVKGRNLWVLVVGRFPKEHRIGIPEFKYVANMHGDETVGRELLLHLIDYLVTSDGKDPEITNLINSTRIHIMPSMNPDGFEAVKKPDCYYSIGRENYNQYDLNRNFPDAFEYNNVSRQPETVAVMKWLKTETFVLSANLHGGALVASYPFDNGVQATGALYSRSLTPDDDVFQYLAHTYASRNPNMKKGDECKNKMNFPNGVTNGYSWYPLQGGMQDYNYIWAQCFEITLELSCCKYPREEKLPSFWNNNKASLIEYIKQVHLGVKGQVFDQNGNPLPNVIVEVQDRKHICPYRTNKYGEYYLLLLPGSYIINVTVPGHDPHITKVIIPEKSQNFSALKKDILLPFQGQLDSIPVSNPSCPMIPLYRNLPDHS
Method: as §6, §2, §7, §8

Compound: NCCCCCC(=O)O [ε-aminocaproic acid]
fold more potent on CPE than inhibition of CPB ([1]; CPE versus CPB): > 100 fold
potency on CPE relative to the other enzymes ([1]; CPE versus other carboxypeptidases): two orders of magnitude more potent
IC50 [2]: 8 µM
Ki [2]: 8.2 µM
Ki [3]: ≥ 1000 µM

specificity for CPN activity ([4]; CPN versus the other carboxypeptidases): > 100 fold
Ki ([4]; read-out: Ki for CPN, room temperature, HBSP pH 7.4): 0.97 µM
Compound: protamine

Ki [2]: 0.016 µM
inhibitory potency toward CPB relative to TAFIa [5]: two to three orders of magnitude greater
Ki [6]: 7 µM
fold less potent for CPZ than for CPE ([6]; CPZ versus CPE): 440 fold
Compound: N=C(N)NCCSC(CC(=O)O)C(=O)O (centres unmarked) [GEMSA, 2-guanidinoethylmercaptosuccinic acid]

Km ([7]; read-out: Km for CPM, 37° C.): > 50 µM
Compound: CSCC[C@H](NC(=O)[C@H](CC(C)C)NC(=O)CNC(=O)CCCCCNC(=O)CCCCCNC(=O)CCCC[C@@H]1SC[C@@H]2NC(=O)N[C@@H]21)C(=O)N[C@H](C(=O)NCC(=O)NCC(=O)N[C@H](C(=O)N[C@H](C(=O)N[C@@H](CCCNC(=N)N)C(=O)O)C(C)C)C(C)C)C(C)C ({Biotin-Ahx-Ahx}-GLMVGGVVR-OH)

inhibitory potency toward CPB relative to TAFIa [5]: two to three orders of magnitude greater
Ki [7]: 0.003 µM
Compound: N=C(N)NCCSCC(CS)C(=O)O (racemic) [Plummer's Inhibitor, DL-2-mercaptomethyl-3-guinidinoethylthiopropanoic acid]
